The values that follow come from US10800791B2, “Triazole ACC inhibitors and uses thereof” (Gilead Apollo, LLC, priority 2015, dated 2020).

Usually MIC stands for the smallest concentration in the dilution series that meets the test's criterion for growth inhibition. The IC50 is the concentration needed to halve the response being measured.

Converted amounts (≈) assume the structure as drawn. Read-outs that look alike come from different tables or passages of the source. Where only a bound is given, the exact number is not on record here.

Assay [1] relates to Fusarium virguliforme (Fv). The experiment in a line: Growth inhibition assay of fungal pathogens, Fv. To be noted: for IC90: 48 h. Format: cell-based. In a few lines:
(§1)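 Spores diluted in 17% V8 liquid media and incubated with compound at final 50, 10, 2 ppm or 2, 0.4, 0.08 ppm (2% DMSO). OD600 plus visual ratings at 24 and 48 hours, blank-subtracted; percent growth inhibition from 48 h readings relative to 2% DMSO control.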

The test system of assay [2] is Fusarium moniliforme (Fm). The experiment in a line: Growth inhibition assay of fungal pathogens, Fm. The class given is cell-based. The following applies: for IC90: Fusarium verticillioides, 48 h, read-out: Concentration at 90% Inhibition Fm. In a few lines: as §1
Assay [3] concerns C. krusei. Nature of the assay: Antifungal Activity Assay (broth microtiter MIC), C. krusei. The class given is cell-based, Candida krusei. The following applies: for MIC: Pichia kudriavzevii, ATCC6258, 48 h. Put shortly: (§2)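 Broth microdilution per CLSI M27-A3 in RPMI 1640+MOPS, inoculum 2.5×10^3 CFU/mL final from overnight Sabouraud dextrose agar cultures at 35° C. Compounds diluted from DMSO stock to 128 μg/mL in water. MIC read visually versus growth control at 48 h.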

Assay [4] deals with Septoria tritici (St). The experiment in a line: Growth inhibition assay of fungal pathogens, St. The class given is cell-based. The following applies: growth inhibition at 48 hours vs 2% DMSO control; for IC90: Zymoseptoria tritici, 48 h. In a few lines: as §1
The subject of assay [5] is Rhizoctonia solani (Rs). Nature of the assay: Growth inhibition assay of fungal pathogens, Rs. The class given is cell-based. The following applies: for IC90: 48 h.
The target in assay [6] is human (hACC2) (Homo sapiens, UniProt O00763). The experiment in a line: In vitro ACC inhibition assay (ADP-Glo), hACC2. The class given is biochemical. To be noted: Table 2b, additional results, 5 nM ACC2, 20 μM ATP, 20 μM acetyl-CoA. The protocol:
The detailed procedure is as follows. […] 10 μL ADP glo reagent was added. […] 20 μL kinase detection reagent was added.
In general terms: ADP-Glo turns the ADP formed in a reaction into a luminescent signal.

The target in assay [7] is fungal (fACC2) (UniProt Q00955). To be noted: read-out: fACC2 (in vitro ACC2 Inhibition Assay, IC50); Table 2b, additional results; ADP-Glo, 5 nM ACC2, 20 μM ATP, 20 μM acetyl-CoA.
The test system of assay [8] is Collectotrichum graminicola (Cg). Nature of the assay: Growth inhibition assay of fungal pathogens, Cg. Format: cell-based. The following applies: growth inhibition at 48 hours vs 2% DMSO control; for IC90: 48 h. Put shortly: as §1
Assay [9] deals with C. albicans. Nature of the assay: Antifungal Activity Assay (broth microtiter MIC), C. albicans. The class given is cell-based, Candida albicans. The following applies: for MIC: Candida albicans, ATCC90028, 48 h. Put shortly:
as §2

The test system of assay [10] is C. parapsilosis. The experiment in a line: Antifungal Activity Assay (broth microtiter MIC), C. parapsilosis. Format: cell-based, Candida parapsilosis. The following applies: for MIC: Lodderomyces parapsilosis, ATCC22019, 48 h. Put shortly:
as §2

Assay [11] relates to Diplodia maydis (Dm). The experiment in a line: Growth inhibition assay of fungal pathogens, Dm. The class given is cell-based. The following applies: growth inhibition at 48 hours vs 2% DMSO control; for IC90: Stenocarpella maydis, 48 h. In a few lines: as §1
Assay [12] concerns Phytophthora capsici (Pc). Nature of the assay: Growth inhibition assay of fungal pathogens, Pc. The class given is cell-based. The following applies: for IC90: 48 h. In a few lines: as §1
The test system of assay [13] is Botrtyis cinerea (Bc). Nature of the assay: Growth inhibition assay of fungal pathogens, Bc. Format: cell-based. The following applies: growth inhibition at 48 hours vs 2% DMSO control; for IC90: 48 h. Put shortly: as §1
Where [14] appears, read: Fusarium moniliforme, growth inhibition at 48 hours vs 2% DMSO control.
Setting [15] is: Table 3b (additional results), ATCC 6258, 3 replicates, MIC recorded at 48 h, read-out: MIC, C. krusei ATCC 6258.
The mark [16] stands for this setting: Septoria tritici, read-out: Concentration at 90% Inhibition St.
The mark [17] stands for this setting: mycelial plugs, growth inhibition at 48 hours vs 2% DMSO control, read-out: Concentration at 90% Inhibition Rs.
Where [18] appears, read: Table 3b (additional results), ATCC 90028, 3 replicates, MIC recorded at 48 h, read-out: MIC, C. albicans ATCC 90028.
Where [19] appears, read: Table 3b (additional results), ATCC 22019, 3 replicates, MIC recorded at 48 h, read-out: MIC, C. parapsilosis ATCC 22019.
Setting [20] is: Diplodia maydis, read-out: Concentration at 90% Inhibition Dm.
[21] abbreviates: growth inhibition at 48 hours vs 2% DMSO control, read-out: Concentration at 90% Inhibition Pc.
Setting [22] is: growth inhibition at 48 hours vs 2% DMSO control.
The mark [23] stands for this setting: Table 3b (additional results), 3 replicates, MIC recorded at 48 h.

human (hACC2), sequence (O00763 whole entry): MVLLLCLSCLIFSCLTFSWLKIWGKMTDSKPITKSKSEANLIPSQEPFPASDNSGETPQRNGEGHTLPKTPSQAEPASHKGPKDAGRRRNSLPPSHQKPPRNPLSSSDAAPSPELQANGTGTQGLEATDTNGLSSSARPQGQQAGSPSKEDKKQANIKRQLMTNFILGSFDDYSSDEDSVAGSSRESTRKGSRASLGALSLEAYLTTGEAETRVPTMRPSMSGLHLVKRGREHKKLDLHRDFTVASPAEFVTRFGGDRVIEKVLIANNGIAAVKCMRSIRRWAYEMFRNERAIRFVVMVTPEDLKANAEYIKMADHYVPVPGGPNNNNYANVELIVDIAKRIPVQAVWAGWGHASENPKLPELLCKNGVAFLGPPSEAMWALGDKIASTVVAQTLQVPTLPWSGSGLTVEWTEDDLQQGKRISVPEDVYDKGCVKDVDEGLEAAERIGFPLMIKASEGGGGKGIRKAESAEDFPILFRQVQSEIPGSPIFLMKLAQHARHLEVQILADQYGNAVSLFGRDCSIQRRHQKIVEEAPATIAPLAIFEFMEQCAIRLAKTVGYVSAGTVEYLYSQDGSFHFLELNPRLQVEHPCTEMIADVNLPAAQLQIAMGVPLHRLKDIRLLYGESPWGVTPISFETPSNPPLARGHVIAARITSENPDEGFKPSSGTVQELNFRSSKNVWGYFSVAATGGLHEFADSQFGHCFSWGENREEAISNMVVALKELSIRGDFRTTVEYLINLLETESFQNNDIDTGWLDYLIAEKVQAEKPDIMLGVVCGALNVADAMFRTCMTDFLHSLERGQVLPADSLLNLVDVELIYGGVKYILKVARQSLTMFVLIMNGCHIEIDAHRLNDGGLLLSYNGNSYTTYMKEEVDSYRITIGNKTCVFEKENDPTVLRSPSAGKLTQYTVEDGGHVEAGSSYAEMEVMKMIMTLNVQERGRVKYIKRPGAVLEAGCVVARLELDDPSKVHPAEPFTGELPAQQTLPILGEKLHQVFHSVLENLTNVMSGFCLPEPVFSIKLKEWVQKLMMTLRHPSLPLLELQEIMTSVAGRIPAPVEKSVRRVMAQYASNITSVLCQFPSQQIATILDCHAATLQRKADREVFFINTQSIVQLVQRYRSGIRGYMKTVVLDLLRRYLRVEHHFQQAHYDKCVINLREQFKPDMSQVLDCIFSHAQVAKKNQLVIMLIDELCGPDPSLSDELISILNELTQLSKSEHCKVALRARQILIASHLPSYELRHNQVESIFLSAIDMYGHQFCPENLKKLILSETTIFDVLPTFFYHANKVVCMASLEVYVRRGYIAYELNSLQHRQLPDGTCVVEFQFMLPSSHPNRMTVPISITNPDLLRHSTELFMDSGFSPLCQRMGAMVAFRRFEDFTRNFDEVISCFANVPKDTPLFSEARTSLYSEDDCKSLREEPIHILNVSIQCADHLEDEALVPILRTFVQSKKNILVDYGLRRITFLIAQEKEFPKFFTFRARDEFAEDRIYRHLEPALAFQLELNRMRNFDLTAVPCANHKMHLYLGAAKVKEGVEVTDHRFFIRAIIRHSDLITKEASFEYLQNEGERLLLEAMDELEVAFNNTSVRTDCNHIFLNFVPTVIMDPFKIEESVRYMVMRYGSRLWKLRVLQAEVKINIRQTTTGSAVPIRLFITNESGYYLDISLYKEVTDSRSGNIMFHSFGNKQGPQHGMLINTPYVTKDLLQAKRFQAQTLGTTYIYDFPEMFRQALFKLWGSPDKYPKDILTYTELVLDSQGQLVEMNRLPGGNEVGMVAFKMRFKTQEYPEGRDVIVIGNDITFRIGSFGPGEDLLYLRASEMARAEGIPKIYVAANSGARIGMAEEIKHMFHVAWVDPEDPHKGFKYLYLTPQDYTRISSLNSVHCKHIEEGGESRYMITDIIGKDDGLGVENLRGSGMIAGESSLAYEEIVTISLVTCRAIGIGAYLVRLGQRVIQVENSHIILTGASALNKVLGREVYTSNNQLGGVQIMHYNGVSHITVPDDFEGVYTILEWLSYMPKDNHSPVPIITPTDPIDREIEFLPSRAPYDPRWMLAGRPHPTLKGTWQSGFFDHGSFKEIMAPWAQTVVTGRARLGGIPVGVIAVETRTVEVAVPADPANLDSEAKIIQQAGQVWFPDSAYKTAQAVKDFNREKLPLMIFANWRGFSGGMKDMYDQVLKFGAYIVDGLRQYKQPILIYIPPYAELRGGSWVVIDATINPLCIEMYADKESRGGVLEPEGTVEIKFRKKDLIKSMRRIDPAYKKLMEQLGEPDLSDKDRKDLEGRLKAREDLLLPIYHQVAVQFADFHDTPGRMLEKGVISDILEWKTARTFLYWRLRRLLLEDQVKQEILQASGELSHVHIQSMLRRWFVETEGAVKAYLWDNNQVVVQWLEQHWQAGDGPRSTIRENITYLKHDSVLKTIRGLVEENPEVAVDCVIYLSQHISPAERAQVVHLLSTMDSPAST
fungal (fACC2), sequence (Q00955 whole entry): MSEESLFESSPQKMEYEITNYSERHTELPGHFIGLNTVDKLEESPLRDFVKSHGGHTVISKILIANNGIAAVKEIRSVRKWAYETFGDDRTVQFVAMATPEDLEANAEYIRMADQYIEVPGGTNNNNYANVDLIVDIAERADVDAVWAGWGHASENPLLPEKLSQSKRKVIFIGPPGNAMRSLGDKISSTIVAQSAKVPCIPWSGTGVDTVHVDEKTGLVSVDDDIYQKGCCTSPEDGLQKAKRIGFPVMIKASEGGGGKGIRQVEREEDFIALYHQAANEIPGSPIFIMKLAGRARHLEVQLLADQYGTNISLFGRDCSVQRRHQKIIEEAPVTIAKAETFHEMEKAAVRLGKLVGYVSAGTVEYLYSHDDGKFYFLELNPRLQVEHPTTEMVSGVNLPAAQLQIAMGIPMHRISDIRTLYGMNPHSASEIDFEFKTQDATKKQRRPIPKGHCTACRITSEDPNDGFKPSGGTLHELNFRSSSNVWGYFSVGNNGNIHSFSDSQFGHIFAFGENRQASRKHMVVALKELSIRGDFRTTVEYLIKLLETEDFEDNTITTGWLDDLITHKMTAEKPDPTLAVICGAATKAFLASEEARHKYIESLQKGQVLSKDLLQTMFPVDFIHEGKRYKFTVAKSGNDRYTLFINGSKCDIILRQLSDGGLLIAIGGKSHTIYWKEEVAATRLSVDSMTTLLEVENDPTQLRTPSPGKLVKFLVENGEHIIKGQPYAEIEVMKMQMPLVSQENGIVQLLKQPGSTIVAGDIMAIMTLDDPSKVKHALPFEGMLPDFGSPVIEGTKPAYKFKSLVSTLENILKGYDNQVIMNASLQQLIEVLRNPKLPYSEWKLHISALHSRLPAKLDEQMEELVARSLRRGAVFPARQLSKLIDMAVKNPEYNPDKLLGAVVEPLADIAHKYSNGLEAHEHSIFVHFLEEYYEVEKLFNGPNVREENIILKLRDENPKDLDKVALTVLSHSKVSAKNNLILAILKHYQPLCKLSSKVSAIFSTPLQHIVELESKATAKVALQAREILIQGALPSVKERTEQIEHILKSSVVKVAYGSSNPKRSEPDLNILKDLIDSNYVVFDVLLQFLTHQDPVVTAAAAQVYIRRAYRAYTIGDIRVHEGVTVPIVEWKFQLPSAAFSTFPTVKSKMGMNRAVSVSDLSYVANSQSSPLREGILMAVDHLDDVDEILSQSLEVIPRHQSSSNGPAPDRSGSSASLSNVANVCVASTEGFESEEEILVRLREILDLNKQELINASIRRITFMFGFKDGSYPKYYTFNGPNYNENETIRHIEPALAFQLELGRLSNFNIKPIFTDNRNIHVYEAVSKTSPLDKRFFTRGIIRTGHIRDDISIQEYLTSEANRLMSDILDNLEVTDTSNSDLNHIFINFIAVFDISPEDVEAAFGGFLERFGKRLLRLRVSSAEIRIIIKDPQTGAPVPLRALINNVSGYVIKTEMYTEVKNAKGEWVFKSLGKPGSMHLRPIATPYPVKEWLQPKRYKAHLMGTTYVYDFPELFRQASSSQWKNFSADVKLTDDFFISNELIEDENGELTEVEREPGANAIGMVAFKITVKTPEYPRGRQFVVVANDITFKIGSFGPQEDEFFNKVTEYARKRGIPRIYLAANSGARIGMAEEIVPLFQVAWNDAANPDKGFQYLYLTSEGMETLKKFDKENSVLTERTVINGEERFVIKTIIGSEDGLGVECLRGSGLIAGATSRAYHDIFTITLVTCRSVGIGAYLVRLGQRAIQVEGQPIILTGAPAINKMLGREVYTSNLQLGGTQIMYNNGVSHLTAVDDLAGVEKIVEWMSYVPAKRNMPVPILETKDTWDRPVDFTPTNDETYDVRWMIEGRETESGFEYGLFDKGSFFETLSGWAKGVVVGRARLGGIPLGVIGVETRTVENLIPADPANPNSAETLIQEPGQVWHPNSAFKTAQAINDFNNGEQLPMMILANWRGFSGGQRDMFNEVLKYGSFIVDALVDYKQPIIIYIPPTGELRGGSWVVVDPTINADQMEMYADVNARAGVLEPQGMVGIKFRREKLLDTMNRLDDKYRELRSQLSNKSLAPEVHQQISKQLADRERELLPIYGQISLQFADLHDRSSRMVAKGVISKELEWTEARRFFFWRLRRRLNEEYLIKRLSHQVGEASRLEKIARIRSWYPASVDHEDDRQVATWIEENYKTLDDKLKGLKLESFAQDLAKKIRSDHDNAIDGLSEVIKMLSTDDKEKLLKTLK

Turning to `COc1ccc(F)cc1[C@H](Cn1c(=O)n(C(C)(C)C(=O)NC(C)C)c(=O)c2c(C)c(-n3nccn3)sc21)OC(=O)CO` [Compound I-262], the IC90 in [1] (growth inhibition at 48 hours vs 2% DMSO control, read-out: Concentration at 90% Inhibition Fv) is 10 µg/mL (≈ 16.6 µM); in assay [2] (setting [14]) it was 10 µg/mL (≈ 16.6 µM); in assay [4] (setting [16]), more than 50 µg/mL; in assay [5] (setting [17]), more than 50 µg/mL; in [8] (Collectotrichum graminicola, read-out: Concentration at 90% Inhibition Cg) it was more than 50 µg/mL; in assay [11] (setting [20]), more than 50 µg/mL. Moreover, the IC90 in assay [12] (setting [21]) is more than 50 µg/mL; in assay [13] (Botrtyis cinerea, read-out: Concentration at 90% Inhibition Bc), more than 50 µg/mL. The minimal inhibitory concentration (MIC) in assay [3] (setting [15]) was 0.06 to 0.249 µg/mL (≈ 0.0996 to 0.413 µM); in [9] (setting [18]) it was 0.25 to 1 µg/mL (≈ 0.415 to 1.66 µM); in assay [10] (setting [19]), 1.01 to 2 µg/mL (≈ 1.68 to 3.32 µM). The figures for the concentration for half-maximal inhibition (IC50) in assay [6] and in assay [7] were more than 40 nM and 5 to 10 nM, respectively.
With `COc1ccc(F)cc1CCn1c(=O)n(C(C)(C)C(=O)NC(C)C)c(=O)c2c(C)c(-n3nccn3)sc21` [Compound I-266], the “Concentration at 90% Inhibition Fv” value in [1] (setting [22]) was “B (compound concentration of 2.0 ppm at 90% inhibition of fungal pathogens)”. Besides, the “Concentration at 90% Inhibition Fm” value in assay [2] (setting [14]) is “B (compound concentration of 2.0 ppm at 90% inhibition of fungal pathogens)”. The figures for the minimum inhibitory concentration (MIC) in [3] (setting [15]), in assay [9] (setting [18]) and in assay [10] (setting [19]) were 0.25 to 1 µg/mL (≈ 0.473 to 1.89 µM), 1.01 to 2 µg/mL (≈ 1.91 to 3.78 µM) and 1.01 to 2 µg/mL (≈ 1.91 to 3.78 µM), respectively. Besides, the IC90 in assay [4] (setting [16]) was more than 50 µg/mL; in assay [5] (setting [17]), 2 µg/mL (≈ 3.78 µM); in [11] (setting [20]), 10 µg/mL (≈ 18.9 µM); in assay [12] (setting [21]), more than 50 µg/mL. The figures for the concentration for half-maximal inhibition (IC50) in assay [6] and in assay [7] were 5 to 10 nM and 1 to 5 nM, respectively. Besides, the “Concentration at 90% Inhibition Cg” value in assay [8] (Collectotrichum graminicola) is given as “B (compound concentration of 2.0 ppm at 90% inhibition of fungal pathogens)”. Also, the “Concentration at 90% Inhibition Bc” value in assay [13] (Botrtyis cinerea) was “B (compound concentration of 2.0 ppm at 90% inhibition of fungal pathogens)”.
As to `COc1ccc(F)cc1[C@@H](CCCO)Cn1c(=O)n(C(C)(C)C(=O)NC(C)C)c(=O)c2c(C)c(-n3nccn3)sc21` [Compound I-267], the IC90 was 10 µg/mL (≈ 17 µM) in [1] (read-out: Concentration at 90% Inhibition Fv, Fusarium virguliforme, growth inhibition at 48 hours vs 2% DMSO control); 2 µg/mL (≈ 3.41 µM) in assay [2]; more than 50 µg/mL in assay [4] (read-out: Concentration at 90% Inhibition St, Septoria tritici); more than 50 µg/mL in assay [5] (read-out: Concentration at 90% Inhibition Rs, Rhizoctonia solani, mycelial plugs, growth inhibition at 48 hours vs 2% DMSO control); more than 50 µg/mL in assay [8] (read-out: Concentration at 90% Inhibition Cg, Collectotrichum graminicola); more than 50 µg/mL in assay [11] (read-out: Concentration at 90% Inhibition Dm, Diplodia maydis). Also, the IC90 in [12] (read-out: Concentration at 90% Inhibition Pc, Phytophthora capsici, growth inhibition at 48 hours vs 2% DMSO control) was more than 50 µg/mL; in assay [13] (read-out: Concentration at 90% Inhibition Bc, Botrtyis cinerea), more than 50 µg/mL. Further, the MIC lay in the range of 0.06 to 0.249 µg/mL (≈ 0.102 to 0.424 µM) in assay [3] (read-out: MIC, C. krusei ATCC 6258, Table 3b (additional results), 3 replicates, MIC recorded at 48 h); 0.25 to 1 µg/mL (≈ 0.426 to 1.7 µM) in [9] (read-out: MIC, C. albicans ATCC 90028, Table 3b (additional results), 3 replicates, MIC recorded at 48 h); 0.25 to 1 µg/mL (≈ 0.426 to 1.7 µM) in assay [10] (read-out: MIC, C. parapsilosis ATCC 22019, Table 3b (additional results), 3 replicates, MIC recorded at 48 h). Also, the IC50 is more than 40 nM in [6] and 1 to 5 nM in [7].
With `COc1ccc(F)cc1CCn1c(=O)n(C(C)(C)C(=O)NC(C)C)c(=O)c2c(C)c(-n3nccn3)sc21` [Compound I-268], the “Concentration at 90% Inhibition Fv” value in assay [1] (setting [22]) is listed as “AA (compound concentration of 0.08 ppm at 90% inhibition of fungal pathogens)”. In addition, the “Concentration at 90% Inhibition Fm” value in [2] (setting [14]) is “A (compound concentration of 0.4 ppm at 90% inhibition of fungal pathogens)”. Moreover, the “MIC, C. krusei ATCC 6258” value in [3] (setting [23]) was “A (MIC of 0.25-1.0 μg/mL)”. Also, the “Concentration at 90% Inhibition St” value in [4] (Septoria tritici) was “D (compound concentration of >50 ppm at 90% inhibition of fungal pathogens)”. Besides, in [5] (mycelial plugs, growth inhibition at 48 hours vs 2% DMSO control), the “Concentration at 90% Inhibition Rs” value is on record as “B (compound concentration of 2.0 ppm at 90% inhibition of fungal pathogens)”. Also, the values for the 50% inhibitory concentration (IC50) in assay [6] and in [7] were 10 to 40 nM and 1 to 5 nM, respectively. In assay [8] (Collectotrichum graminicola), the “Concentration at 90% Inhibition Cg” value is listed as “C (compound concentration of 10.0 ppm at 90% inhibition of fungal pathogens)”. Also, in [9] (setting [23]), the “MIC, C. albicans ATCC 90028” value is reported as “B (MIC of 1.01-2.0 μg/mL)”. Further, in [10] (setting [23]), the “MIC, C. parapsilosis ATCC 22019” value was “B (MIC of 1.01-2.0 μg/mL)”. For the same compound, in assay [11] (Diplodia maydis), the “Concentration at 90% Inhibition Dm” value is “C (compound concentration of 10.0 ppm at 90% inhibition of fungal pathogens)”. Moreover, the “Concentration at 90% Inhibition Pc” value in assay [12] (setting [22]) was “D (compound concentration of >50 ppm at 90% inhibition of fungal pathogens)”. Also, the “Concentration at 90% Inhibition Bc” value in [13] (Botrtyis cinerea) is listed as “A (compound concentration of 0.4 ppm at 90% inhibition of fungal pathogens)”.
